{
  "source": "patent US6358885B1",
  "about": "“Substituted phenylheterocyclic herbicides” (Mississippi State University, priority 1992, dated 2002)",
  "assay_in_all_cases": "Test G preemergence/postemergence greenhouse plant response rating 0 to 100",
  "key": {"[1]": {"system": "alfalfa", "assay_type": "in vivo, Medicago ativa", "conditions": "0 to 100 scale", "source_text": "(§1) Seeds, rhizomes, or plant parts of alfalfa (Medicago ativa), annual bluegrass (Poa annua), bermudagrass (Cynodon dactylon), broadleaf signalgrass (Brachiaria plantaginea), common purslane (Portulaca oleracea), common ragweed (Ambrosia elatior), […] (Paspalum dilatatum), goosegrass (Eleusine indica), guineagrass (Panicum maximum), […] exaltata), johnsongrass (Sorghum halepense), large crabgrass (Digitaria sanguinalis), peanut (Arachis hypoagaea), pitted morningglory (Ipomoea lacunosa), purple nutsedge (Cyperus rotundus), sandbur (Cenchrus echinatus), smooth crabgrass (Digitaria ischaemum) and yellow nutsedge (Cyperus esculentus) were planted into greenhouse pots containing greenhouse planting medium. Each pot contained only one plant species. The test compound was dissolved in a non-phytotoxic solvent and applied preemergence and/or postemergence to the plants. Preemergence applications were made within one day of planting the seeds or plant parts. Postemergence applications were applied when the plants were in the two to four leaf stage (three to twenty cm). Test chemicals were dissolved in a non-phytotoxic solvent and applied preemergence and postemergence to the plants. Untreated control plants and treated plants were placed in the greenhouse and visually evaluated for injury at 13 to 21 days after herbicide application. […] A dash (-) response indicates no test result."}, "[2]": {"system": "annual bluegrass", "assay_type": "in vivo, Poa annua", "conditions": "0 to 100 scale", "source_text": "as §1"}, "[3]": {"system": "bermudagrass", "assay_type": "in vivo, Cynodon dactylon", "conditions": "0 to 100 scale", "source_text": "as §1"}, "[4]": {"system": "broadleaf signalgrass", "assay_type": "in vivo, Brachiaria plantaginea", "conditions": "0 to 100 scale", "source_text": "as §1"}, "[5]": {"system": "common purslane", "assay_type": "in vivo, Portulaca oleracea", "conditions": "0 to 100 scale", "source_text": "as §1"}, "[6]": {"system": "common ragweed", "assay_type": "in vivo, Ambrosia elatior", "conditions": "0 to 100 scale", "source_text": "as §1"}, "[7]": {"system": "goosegrass", "assay_type": "in vivo, Eleusine indica", "conditions": "0 to 100 scale", "source_text": "as §1"}, "[8]": {"system": "guineagrass", "assay_type": "in vivo, Panicum maximum", "conditions": "0 to 100 scale", "source_text": "as §1"}, "[9]": {"system": "itchgrass", "assay_type": "in vivo, Rottboellia exaltata", "conditions": "0 to 100 scale", "source_text": "as §1"}, "[10]": {"system": "johnsongrass", "assay_type": "in vivo, Sorghum halepense", "conditions": "0 to 100 scale", "source_text": "as §1"}, "[11]": {"system": "large crabgrass", "assay_type": "in vivo, Digitaria sanguinalis", "conditions": "0 to 100 scale", "source_text": "as §1"}, "[12]": {"system": "peanut", "assay_type": "in vivo, Arachis hypoagaea", "conditions": "0 to 100 scale", "source_text": "as §1"}, "[13]": {"system": "pitted morningglory", "assay_type": "in vivo, Ipomoea lacunosa", "conditions": "0 to 100 scale", "source_text": "as §1"}, "[14]": {"system": "sandbur", "assay_type": "in vivo, Cenchrus echinatus", "conditions": "0 to 100 scale", "source_text": "as §1"}, "[15]": {"system": "smooth crabgrass", "assay_type": "in vivo, Digitaria ischaemum", "conditions": "0 to 100 scale", "source_text": "as §1"}, "[16]": {"system": "yellow nutsedge", "assay_type": "in vivo, Cyperus esculentus", "conditions": "Rate 125 g/ha, 0 to 100 scale", "source_text": "as §1"}},
  "data": [
    {"smiles": "C=CCN1C(=O)COc2cc(F)c(-c3nn4c(c3Cl)CCCC4)cc21", "note": "[Compound 33]", "values": [
      {"measurement": "Plant response rating, Alfalfa Var.", "setting": "[1]; POSTEMERGENCE, Rate 125 g/ha", "value": 0},
      {"measurement": "Plant response rating, Alfalfa Var.", "setting": "[1]; POSTEMERGENCE, Rate 250 g/ha", "value": 0},
      {"measurement": "Plant response rating, Alfalfa Var.", "setting": "[1]; PREEMERGENCE, Rate 125 g/ha", "value": 0},
      {"measurement": "Plant response rating, Alfalfa Var.", "setting": "[1]; PREEMERGENCE, Rate 250 g/ha", "value": 0},
      {"measurement": "Plant response rating, Ann Bluegrass", "setting": "[2]; POSTEMERGENCE, Rate 125 g/ha", "value": 0},
      {"measurement": "Plant response rating, Ann Bluegrass", "setting": "[2]; POSTEMERGENCE, Rate 250 g/ha", "value": 0},
      {"measurement": "Plant response rating, Ann Bluegrass", "setting": "[2]; PREEMERGENCE, Rate 125 g/ha", "value": 0},
      {"measurement": "Plant response rating, Ann Bluegrass", "setting": "[2]; PREEMERGENCE, Rate 250 g/ha", "value": 0},
      {"measurement": "Plant response rating, Bermudagrass", "setting": "[3]; POSTEMERGENCE, Rate 125 g/ha", "value": 0},
      {"measurement": "Plant response rating, Bermudagrass", "setting": "[3]; POSTEMERGENCE, Rate 250 g/ha", "value": 0},
      {"measurement": "Plant response rating, Bermudagrass", "setting": "[3]; PREEMERGENCE, Rate 125 g/ha", "value": 0},
      {"measurement": "Plant response rating, Bermudagrass", "setting": "[3]; PREEMERGENCE, Rate 250 g/ha", "value": 0},
      {"measurement": "Plant response rating, Brdlf Sgnlgrass", "setting": "[4]; POSTEMERGENCE, Rate 125 g/ha", "value": 0},
      {"measurement": "Plant response rating, Brdlf Sgnlgrass", "setting": "[4]; POSTEMERGENCE, Rate 250 g/ha", "value": 0},
      {"measurement": "Plant response rating, Brdlf Sgnlgrass", "setting": "[4]; PREEMERGENCE, Rate 125 g/ha", "value": 0},
      {"measurement": "Plant response rating, Brdlf Sgnlgrass", "setting": "[4]; PREEMERGENCE, Rate 250 g/ha", "value": 0},
      {"measurement": "Plant response rating, Cmn Purslane", "setting": "[5]; POSTEMERGENCE, Rate 125 g/ha", "value": 100},
      {"measurement": "Plant response rating, Cmn Purslane", "setting": "[5]; POSTEMERGENCE, Rate 250 g/ha", "value": 80},
      {"measurement": "Plant response rating, Cmn Purslane", "setting": "[5]; PREEMERGENCE, Rate 125 g/ha", "value": 0},
      {"measurement": "Plant response rating, Cmn Purslane", "setting": "[5]; PREEMERGENCE, Rate 250 g/ha", "value": 40},
      {"measurement": "Plant response rating, Cmn Ragweed", "setting": "[6]; POSTEMERGENCE, Rate 125 g/ha", "value": 80},
      {"measurement": "Plant response rating, Cmn Ragweed", "setting": "[6]; POSTEMERGENCE, Rate 250 g/ha", "value": 50},
      {"measurement": "Plant response rating, Cmn Ragweed", "setting": "[6]; PREEMERGENCE, Rate 125 g/ha", "value": 0},
      {"measurement": "Plant response rating, Cmn Ragweed", "setting": "[6]; PREEMERGENCE, Rate 250 g/ha", "value": 0},
      {"measurement": "Plant response rating, Goosegrass", "setting": "[7]; POSTEMERGENCE, Rate 125 g/ha", "value": 0},
      {"measurement": "Plant response rating, Goosegrass", "setting": "[7]; POSTEMERGENCE, Rate 250 g/ha", "value": 0},
      {"measurement": "Plant response rating, Goosegrass", "setting": "[7]; PREEMERGENCE, Rate 125 g/ha", "value": 0},
      {"measurement": "Plant response rating, Goosegrass", "setting": "[7]; PREEMERGENCE, Rate 250 g/ha", "value": 0},
      {"measurement": "Plant response rating, Guineagrass", "setting": "[8]; POSTEMERGENCE, Rate 125 g/ha", "value": 0},
      {"measurement": "Plant response rating, Guineagrass", "setting": "[8]; POSTEMERGENCE, Rate 250 g/ha", "value": 0},
      {"measurement": "Plant response rating, Guineagrass", "setting": "[8]; PREEMERGENCE, Rate 125 g/ha", "value": 0},
      {"measurement": "Plant response rating, Guineagrass", "setting": "[8]; PREEMERGENCE, Rate 250 g/ha", "value": 0},
      {"measurement": "Plant response rating, Itchgrass", "setting": "[9]; POSTEMERGENCE, Rate 125 g/ha", "value": 0},
      {"measurement": "Plant response rating, Itchgrass", "setting": "[9]; POSTEMERGENCE, Rate 250 g/ha", "value": 0},
      {"measurement": "Plant response rating, Itchgrass", "setting": "[9]; PREEMERGENCE, Rate 125 g/ha", "value": 0},
      {"measurement": "Plant response rating, Itchgrass", "setting": "[9]; PREEMERGENCE, Rate 250 g/ha", "value": 0},
      {"measurement": "Plant response rating, Johnsongrass", "setting": "[10]; POSTEMERGENCE, Rate 125 g/ha", "value": 0},
      {"measurement": "Plant response rating, Johnsongrass", "setting": "[10]; POSTEMERGENCE, Rate 250 g/ha", "value": 0},
      {"measurement": "Plant response rating, Johnsongrass", "setting": "[10]; PREEMERGENCE, Rate 125 g/ha", "value": 0},
      {"measurement": "Plant response rating, Johnsongrass", "setting": "[10]; PREEMERGENCE, Rate 250 g/ha", "value": 0},
      {"measurement": "Plant response rating, Large Crabgrass", "setting": "[11]; POSTEMERGENCE, Rate 125 g/ha", "value": 0},
      {"measurement": "Plant response rating, Large Crabgrass", "setting": "[11]; POSTEMERGENCE, Rate 250 g/ha", "value": 0},
      {"measurement": "Plant response rating, Large Crabgrass", "setting": "[11]; PREEMERGENCE, Rate 125 g/ha", "value": 0},
      {"measurement": "Plant response rating, Large Crabgrass", "setting": "[11]; PREEMERGENCE, Rate 250 g/ha", "value": 0},
      {"measurement": "Plant response rating, Peanuts", "setting": "[12]; POSTEMERGENCE, Rate 125 g/ha", "value": 0},
      {"measurement": "Plant response rating, Peanuts", "setting": "[12]; POSTEMERGENCE, Rate 250 g/ha", "value": 0},
      {"measurement": "Plant response rating, Peanuts", "setting": "[12]; PREEMERGENCE, Rate 125 g/ha", "value": 0},
      {"measurement": "Plant response rating, Peanuts", "setting": "[12]; PREEMERGENCE, Rate 250 g/ha", "value": 0},
      {"measurement": "Plant response rating, Pit Morninglory", "setting": "[13]; POSTEMERGENCE, Rate 125 g/ha", "value": 30},
      {"measurement": "Plant response rating, Pit Morninglory", "setting": "[13]; POSTEMERGENCE, Rate 250 g/ha", "value": 100},
      {"measurement": "Plant response rating, Pit Morninglory", "setting": "[13]; PREEMERGENCE, Rate 125 g/ha", "value": 0},
      {"measurement": "Plant response rating, Pit Morninglory", "setting": "[13]; PREEMERGENCE, Rate 250 g/ha", "value": 0},
      {"measurement": "Plant response rating, S. Sandbur", "setting": "[14]; POSTEMERGENCE, Rate 125 g/ha", "value": 0},
      {"measurement": "Plant response rating, S. Sandbur", "setting": "[14]; POSTEMERGENCE, Rate 250 g/ha", "value": 0},
      {"measurement": "Plant response rating, S. Sandbur", "setting": "[14]; PREEMERGENCE, Rate 125 g/ha", "value": 0},
      {"measurement": "Plant response rating, S. Sandbur", "setting": "[14]; PREEMERGENCE, Rate 250 g/ha", "value": 0},
      {"measurement": "Plant response rating, Smooth Crabgras", "setting": "[15]; POSTEMERGENCE, Rate 125 g/ha", "value": 0},
      {"measurement": "Plant response rating, Smooth Crabgras", "setting": "[15]; POSTEMERGENCE, Rate 250 g/ha", "value": 0},
      {"measurement": "Plant response rating, Smooth Crabgras", "setting": "[15]; PREEMERGENCE, Rate 125 g/ha", "value": 0},
      {"measurement": "Plant response rating, Smooth Crabgras", "setting": "[15]; PREEMERGENCE, Rate 250 g/ha", "value": 0},
      {"measurement": "Plant response rating, Yellow Nutsedge", "setting": "[16]; POSTEMERGENCE", "value": 0},
      {"measurement": "Plant response rating, Yellow Nutsedge", "setting": "[16]; PREEMERGENCE", "value": 0}
    ]}
  ]
}
